Laboratory results taken from patent EP4562003B1, “NOVEL 7-SUBSTITUTED INDOLE SULFONAMIDE DERIVATIVES” (F. Hoffmann-La Roche AG, priority 2022, dated 2024).

molecular target: human GPR17 short isoform (Homo sapiens, UniProt Q13304); assay: GPR17 cAMP assay (TR-FRET cAMP quantification, antagonist mode); type: cell-based; details: CHO-K1 cells stably expressing human GPR17 short isoform; EC80 of agonist MDL29,951; forskolin 15µM; IBMX 0.5mM; 30 minutes at room temperature; read-out: hGPR17 cAMP IC50
Sequence (Q13304 29-367): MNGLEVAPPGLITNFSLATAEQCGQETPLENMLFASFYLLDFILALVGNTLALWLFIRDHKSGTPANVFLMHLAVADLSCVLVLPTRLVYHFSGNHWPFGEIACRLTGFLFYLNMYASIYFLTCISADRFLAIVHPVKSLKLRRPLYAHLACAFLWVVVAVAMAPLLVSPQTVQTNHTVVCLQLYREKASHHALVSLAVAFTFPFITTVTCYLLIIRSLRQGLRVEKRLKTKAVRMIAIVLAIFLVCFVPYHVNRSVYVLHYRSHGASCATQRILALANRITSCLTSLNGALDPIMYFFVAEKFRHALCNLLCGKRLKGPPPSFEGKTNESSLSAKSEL
Description: GPR17 cAMP Assay Protocol:
CHO-K1 cells stably expressing vector containing untagged human GPR17 short isoform (Roche) were cultured at 37°C / 5% CO2 in DMEM (Dulbecco's Modified Eagle Medium):F-12 (1:1) supplemented with 10% foetal bovine serum and 400 µg/ml Geneticin.
Changes in intracellular cyclic adenosine monophosphate (cAMP) levels were quantified using the Nano-TRF Detection Assay kit (Roche Diagnostics, Cat. No. 05214386001). This assay allows for direct cAMP quantification in a homogeneous solution. cAMP is detected based on time-resolved fluorescence energy transfer (TR-FRET) and competitive binding of ruthenylated cAMP and endogenous cAMP to an anti-cAMP monoclonal antibody labeled with AlexaFluor-700. The Ruthenium complex serves as the FRET donor and transfers energy to AlexaFluor-700. The FRET signal is inversely proportional to the cAMP concentration.
CHO-GPR17S cells were detached with Accutase and resuspended in assay buffer consisting of Hank's Balanced Salt Solution (HBSS), 10mM HEPES (4-(2-hydroxyethyl) piperazine-1-ethanesulfonic acid solution) and 0.1% bovine serum albumin (pH 7.4). The cells were seeded in black 384-well plates (Corning) at a density of 10'000 cells / 20µl assay buffer until the addition of compounds.
Test antagonist compounds were serially diluted in dimethyl sulfoxide (DMSO) and spotted in 384-well plates. The compounds were then diluted in HBSS buffer supplemented with an EC80 concentration of MDL29,951 (3-(2-Carboxy-4,6-dichloroindol-3-yl)propionic acid) (GPR17 agonist) plus 3-Isobutyl-1-methylxanthine (IBMX) (0.5mM final concentration) and added to the cells at room temperature. Forskolin (15µM final concentration) was added 5 minutes after the test compounds and the cells were incubated at room temperature for 30 minutes. The assay was stopped by adding cAMP detection mix (containing detergents for cell lysis) for 90 minutes at room temperature.
Cellular cAMP was measured using a Paradigm reader (Molecular Devices). The raw data was used to calculate the FRET signal based on the assay's P-factor as per cAMP kit instructions. The data was normalized to the maximal activity of a reference antagonist and dose response curves were fitted to the percent activity of the test compounds using a sigmoidal dose response model (Genedata Screener).
Results in the hGPR17 cAMP assay are provided for compounds of formula I in Table 1 Table 1: […]

IC50 [nM] | SMILES
130 | COc1nc(NS(=O)(=O)c2c[nH]c3c(-c4cnccn4)cccc23)nc(OC)c1OCC(F)F [Example 30, N-[5-(2,2-difluoroethoxy)-4,6-dimethoxy-pyrimidin-2-yl]-7-pyrazin-2-yl-1H-indole-3-sulfonamide]
84 | COc1nc(NS(=O)(=O)c2c[nH]c3c(-c4cnccn4)c(F)ccc23)nc(OC)c1CC(F)F [Example 31, N-[5-(2,2-difluoroethyl)-4,6-dimethoxy-pyrimidin-2-yl]-6-fluoro-7-pyrazin-2-yl-1H-indole-3-sulfonamide]
129 | COc1nc(NS(=O)(=O)c2c[nH]c3c(-c4cnccn4)c(F)ccc23)nc(OC)c1OCCF [Example 32, 6-fluoro-N-[5-(2-fluoroethoxy)-4,6-dimethoxy-pyrimidin-2-yl]-7-pyrazin-2-yl-1H-indole-3-sulfonamide]
132 | COc1nc(NS(=O)(=O)c2c[nH]c3c(-c4cnccn4)c(F)ccc23)nc(OC)c1OCC(F)F [Example 33, N-[5-(2,2-difluoroethoxy)-4,6-dimethoxy-pyrimidin-2-yl]-6-fluoro-7-pyrazin-2-yl-1H-indole-3-sulfonamide]
407 | COc1nc(NS(=O)(=O)c2c[nH]c3c(-c4cnccn4)c(F)ccc23)nc(OC)c1OC(F)F [Example 34, N-[5-(difluoromethoxy)-4,6-dimethoxy-pyrimidin-2-yl]-6-fluoro-7-pyrazin-2-yl-1H-indole-3-sulfonamide]
34 | COc1nc(NS(=O)(=O)c2c[nH]c3c(-c4ncccn4)c(Br)ccc23)nc(OC)c1CC(F)F [Example 35, 6-bromo-N-[5-(2,2-difluoroethyl)-4,6-dimethoxy-pyrimidin-2-yl]-7-(2-pyrimidyl)-1H-indole-3-sulfonamide]
42 | COc1nc(NS(=O)(=O)c2c[nH]c3c(-c4ncccn4)c(Br)ccc23)nc(OC)c1OC(F)F [Example 36, 6-bromo-N-[5-(difluoromethoxy)-4,6-dimethoxy-pyrimidin-2-yl]-7-(2-pyrimidyl)-1H-indole-3-sulfonamide]
67 | COc1nc(NS(=O)(=O)c2c[nH]c3c(-c4ncccn4)c(Br)ccc23)nc(OC)c1OCCF [Example 37, 6-bromo-N-[5-(2-fluoroethoxy)-4,6-dimethoxy-pyrimidin-2-yl]-7-(2-pyrimidyl)-1H-indole-3-sulfonamide]
54 | COc1nc(NS(=O)(=O)c2c[nH]c3c(-c4ncccn4)c(Br)ccc23)nc(OC)c1OCC(F)F [Example 38, 6-bromo-N-[5-(2,2-difluoroethoxy)-4,6-dimethoxy-pyrimidin-2-yl]-7-(2-pyrimidyl)-1H-indole-3-sulfonamide]
17 | COc1nc(NS(=O)(=O)c2c[nH]c3c(-c4cnccn4)c(Br)ccc23)nc(OC)c1CC(F)F [Example 39, 6-bromo-N-[5-(2,2-difluoroethyl)-4,6-dimethoxy-pyrimidin-2-yl]-7-pyrazin-2-yl-1H-indole-3-sulfonamide]
9 | COc1nc(NS(=O)(=O)c2c[nH]c3c(-c4cnccn4)c(Br)ccc23)nc(OC)c1OC(F)F [Example 40, 6-bromo-N-[5-(difluoromethoxy)-4,6-dimethoxy-pyrimidin-2-yl]-7-pyrazin-2-yl-1H-indole-3-sulfonamide]
15 | COc1nc(NS(=O)(=O)c2c[nH]c3c(-c4cnccn4)c(Br)ccc23)nc(OC)c1OCC(F)F [Example 41, 6-bromo-N-[5-(2,2-difluoroethoxy)-4,6-dimethoxy-pyrimidin-2-yl]-7-pyrazin-2-yl-1H-indole-3-sulfonamide]
38 | COc1nc(NS(=O)(=O)c2c[nH]c3c(-c4cnc(F)cn4)c(Cl)ccc23)nc(OC)c1OCC(F)F [Example 42, 6-chloro-N-[5-(2,2-difluoroethoxy)-4,6-dimethoxy-pyrimidin-2-yl]-7-(5-fluoropyrazin-2-yl)-1H-indole-3-sulfonamide]
32 | COc1nc(NS(=O)(=O)c2c[nH]c3c(-c4cccnn4)c(Br)ccc23)nc(OC)c1CC(F)F [Example 43, 6-bromo-N-[5-(2,2-difluoroethyl)-4,6-dimethoxy-pyrimidin-2-yl]-7-pyridazin-3-yl-1H-indole-3-sulfonamide]
182 | COc1nc(NS(=O)(=O)c2c[nH]c3c(-c4ncccn4)c(C(F)F)ccc23)nc(OC)c1OCCF [Example 44, 6-(difluoromethyl)-N-[5-(2-fluoroethoxy)-4,6-dimethoxy-pyrimidin-2-yl]-7-(2-pyrimidyl)-1H-indole-3-sulfonamide]
50 | COc1nc(NS(=O)(=O)c2c[nH]c3c(-c4ncc[nH]4)c(F)ccc23)nc(OC)c1OCC(F)F [Example 45, N-[5-(2,2-difluoroethoxy)-4,6-dimethoxy-pyrimidin-2-yl]-6-fluoro-7-(1H-imidazol-2-yl)-1H-indole-3-sulfonamide]
34 | COc1nc(NS(=O)(=O)c2c[nH]c3c(-c4ncn(C)c4C)c(Cl)ccc23)nc(OC)c1OCC(F)F [Example 46, 6-chloro-N-[5-(2,2-difluoroethoxy)-4,6-dimethoxy-pyrimidin-2-yl]-7-(1,5-dimethylimidazol-4-yl)-1H-indole-3-sulfonamide]
17 | COc1nc(NS(=O)(=O)c2c[nH]c3c(-c4cn(C)cn4)c(Cl)ccc23)nc(OC)c1OCC(F)F [Example 47, 6-chloro-N-[5-(2,2-difluoroethoxy)-4,6-dimethoxy-pyrimidin-2-yl]-7-(1-methylimidazol-4-yl)-1H-indole-3-sulfonamide]
86 | COc1nc(NS(=O)(=O)c2c[nH]c3c(-c4ncccn4)c(C)ccc23)nc(OC)c1OCC(F)F [Example 48, N-[5-(2,2-difluoroethoxy)-4,6-dimethoxy-pyrimidin-2-yl]-6-methyl-7-(2-pyrimidyl)-1H-indole-3-sulfonamide]
301 | COc1nc(NS(=O)(=O)c2c[nH]c3c(-c4ncccn4)c(C(F)F)ccc23)nc(OC)c1OCC(F)F [Example 49, N-[5-(2,2-difluoroethoxy)-4,6-dimethoxy-pyrimidin-2-yl]-6-(difluoromethyl)-7-(2-pyrimidyl)-1H-indole-3-sulfonamide]
288 | COc1nc(NS(=O)(=O)c2c[nH]c3c(-c4ncccn4)c(C(F)F)ccc23)nc(OC)c1OC(F)F [Example 50, N-[5-(difluoromethoxy)-4,6-dimethoxy-pyrimidin-2-yl]-6-(difluoromethyl)-7-(2-pyrimidyl)-1H-indole-3-sulfonamide]
74 | COc1nc(NS(=O)(=O)c2c[nH]c3c(-c4ncccn4)c(C(F)F)ccc23)nc(OC)c1CC(F)F [Example 51, N-[5-(2,2-difluoroethyl)-4,6-dimethoxy-pyrimidin-2-yl]-6-(difluoromethyl)-7-(2-pyrimidyl)-1H-indole-3-sulfonamide]
22 | COc1nc(NS(=O)(=O)c2c[nH]c3c(-c4ncccn4)c(C)ccc23)nc(OC)c1CC(F)F [Example 52, N-[5-(2,2-difluoroethyl)-4,6-dimethoxy-pyrimidin-2-yl]-6-methyl-7-(2-pyrimidyl)-1H-indole-3-sulfonamide]
43 | COc1nc(NS(=O)(=O)c2c[nH]c3c(-c4nccnc4C)cccc23)nc(OC)c1CC(F)F [Example 53, N-[5-(2,2-difluoroethyl)-4,6-dimethoxy-pyrimidin-2-yl]-7-(3-methylpyrazin-2-yl)-1H-indole-3-sulfonamide]
64 | COc1nc(NS(=O)(=O)c2c[nH]c3c(-c4nccnc4C)cccc23)nc(OC)c1OCC(F)F [Example 54, N-[5-(2,2-difluoroethoxy)-4,6-dimethoxy-pyrimidin-2-yl]-7-(3-methylpyrazin-2-yl)-1H-indole-3-sulfonamide]
157 | COc1nc(NS(=O)(=O)c2c[nH]c3c(-c4ncccn4)c(C)ccc23)nc(OC)c1OC(F)F [Example 55, N-[5-(difluoromethoxy)-4,6-dimethoxy-pyrimidin-2-yl]-6-methyl-7-(2-pyrimidyl)-1H-indole-3-sulfonamide]
129 | COc1nc(NS(=O)(=O)c2c[nH]c3c(-c4ncccn4)c(C)ccc23)nc(OC)c1OCCF [Example 56, N-[5-(2-fluoroethoxy)-4,6-dimethoxy-pyrimidin-2-yl]-6-methyl-7-(2-pyrimidyl)-1H-indole-3-sulfonamide]
109 | COc1nc(NS(=O)(=O)c2c[nH]c3c(-c4cccnn4)c(C)ccc23)nc(OC)c1OCC(F)F [Example 57, N-[5-(2,2-difluoroethoxy)-4,6-dimethoxy-pyrimidin-2-yl]-6-methyl-7-pyridazin-3-yl-1H-indole-3-sulfonamide]
